Test results published in patent publication US10800816B2 (Baxalta GmbH, priority 2012, dated 2020).
*1 amine or outer side, *2 acyl side, *3 side chain or, on linkers, in order; H or OH if unused. Where a SMILES comes first, the peptide text is derived from it. Side-chain parts run from the residue outwards. [ ]: non-standard residue; d: D form. The star is where a group is joined. TTDA(Palmitoyl) = CCCCCCCCCCCCCCCC(=O)NCCCOCCOCCOCCCN*; Succinimide(1-Et,3-yl) = CCN1C(=O)CC(*)C1=O; Suc = O=C(CCC(=O)[*:2])[*:1]; Tle = CC(C)(C)[C@H](N)C(=O)O; Hexanoyl = CCCCCC(=O)*; Aib = CC(C)(N)C(=O)O; Acm = CC(=O)NC*

Legend:
[1] = test system: FVIII-inhibited whole blood; assay: Rotation thromboelastography (ROTEM) in whole blood; set-up: species or system human; settings: for EC50: FVIII-inhibited, read-out: EC50, global hemostatic parameters; for coagulation parameters: Hem A / FVIII-inhibited human whole blood
Procedure: Continuous visco-elastic assessment of human whole blood clot formation and firmness was performed by rotation thromboelastography with whole blood preparations in the presence or absence of peptides. […] Test samples were prepared by dissolving quantities of peptides in either DMSO or HEPES buffered saline (with or without 0.1% Tween 80).
Recordings were made using a ROTEM thromboelastography coagulation analyzer (Pentapharm, Munich, Germany) at 37° C. Briefly, blood is added into a disposable cuvette in a heated cuvette holder. A disposable pin (sensor) is fixed on the tip of a rotating axis. The axis is guided by a high precision ball bearing system and rotates back and forth. The axis is connected with a spring for the measurement of elasticity. The exact position of the axis is detected by the reflection of light on a small mirror on the axis. The loss of elasticity when the sample clots leads to a change in the rotation of the axis. The data obtained are computer analyzed and visualized in a thromboelastogram. […] An elasticity of approximately zero is observed before clot formation begins. Mirror image traces above and below the zero line indicate the effect of clot formation on the rotation of the axis.
The analytical set-up was as follows: to 20 μL of test sample or control, 300 μL of pre-warmed (37° C.) CTI treated citrated whole blood was added, followed by 20 μL of a 1:15 dilution of TF PRP reagent containing recombinant human tissue factor (rTF, 3 pM) (TS40, Thrombinoscope BV, Maastricht, The Netherlands). Coagulation was initiated by the addition of 20 μ200 mM CaCl2 (star-TEM®, Pentapharm, Munich, Germany) and recordings were allowed to proceed for at least 120 min. The final concentration of rTF in the assay was 11 or 44 fM.
The thromboelastographic parameters of clotting time (CT), clot formation time (CFT) and maximum clot firmness (MCF) were recorded in accordance with the manufacturer's instructions. CT is defined as the time from the start of measurement to the start of clot formation. CFT is defined as the time from the start of clot formation until an amplitude of 20 mm is reached. MCF is the maximum difference in amplitude between the two traces during the assay. The first derivative of the data of the thromboelastogram are plotted to obtain a graph of velocity (mm/s) against time (s). From this graph, the maximum velocity (maxV) is determined. The time at which the maximum velocity is obtained (maxV-t) is also determined.
This example describes a method for assessing clot formation in whole blood using rotation thromboelastography (ROTEM). The assay was performed as described in Example 8. The analytical set-up was as follows: 300 μL of pre-warmed (37° C.) CTI treated citrated whole blood was added to a peptide sample (10, 100, 1000 nM final assay concentration) or a control, followed by addition of a 1:15 dilution of TF PRP reagent containing recombinant human tissue factor (rTF, 3 pM) (TS40, Thrombinoscope BV, Maastricht, The Netherlands). In certain experiments, exogenous full length TFPI (flTFPI) at final concentrations of 2 or 10 nM was added to simulate flTFPI plasma levels of up to 50-fold over normal. Coagulation was initiated by the addition of 20 μL 200 mM CaCl2 (star-TEM®, Pentapharm, Munich, Germany) and recordings were allowed to proceed for at least 120 min. The final concentration of rTF in the assay was 44 fM. The thromboelastographic parameters of clotting time (CT), clot formation time (CFT) and maximum clot firmness (MCF) were recorded in accordance with the manufacturer's instructions. CT is defined as the time from the start of measurement to the start of clot formation. CFT is defined as the time from the start of clot formation until an amplitude of 20 mm is reached. MCF is the maximum difference in amplitude between the two traces during the assay.

FIGURE 78J = assay: FIGURE 78J
Text: Table printed on a drawing sheet, FIGURE 78J
First reader's note: Part of a table series (FIGS. 78A-78AA); single-measurement columns hold several replicate values per cell, joined by blanks, next to the mean column (the first INHIBITION [%] column holds the mean).

TFPI = assay: IC50 ELISA | Mean IC50 [nM]
Text: Table printed on a drawing sheet, FIGURE 78Z
Head of the field: IC50 ELISA | Mean IC50 [nM]
First copying reader's note: Continued table: the first body row (45.67) belongs to a compound on the preceding sheet, the last row probably continues on the next sheet, and cells with several values list single replicates.

CSCC[C@@H]1NC(=O)[C@H](C)NC(=O)[C@@H](NC(=O)[C@H](Cc2c[nH]cn2)NC(=O)[C@H](Cc2c[nH]c3ccccc23)NC(=O)[C@H](CCCCN)NC(=O)[C@H](Cc2ccc(O)cc2)NC(=O)[C@H](Cc2ccc(O)cc2)NC(=O)[C@H](CO)NC(C)=O)CSSC[C@@H](C(=O)N[C@H](C(=O)N[C@@H](Cc2c[nH]c3ccccc23)C(=O)N[C@H](C(=O)N[C@@H](CCCCN)C(=O)N[C@@H](Cc2ccccc2)C(N)=O)C(C)C)C(C)C)NC(=O)[C@H]([C@@H](C)O)NC(=O)[C@H](CCSC)NC(=O)[C@H]([C@@H](C)O)NC(=O)CNC(=O)[C@H](CCCCN)NC(=O)[C@H](CCSC)NC(=O)[C@H](CC(=O)O)NC(=O)[C@H](CCCNC(=N)N)NC1=O [JBT1837]
EC50 [1]: 4 nM
coagulation parameters [1]: corrected blood coagulation parameters in FVIII-inhibited blood

CCN1C(=O)CC(SC[C@H](NC(=O)[C@H](CC(C)C)NC(=O)[C@H](CCCCN)NC(=O)[C@H](C)NC(=O)C(C)(C)NC(=O)[C@H](CC(C)C)NC(=O)[C@H](CCCNC(=N)N)NC(=O)[C@H](CCC(=O)O)NC(=O)[C@H](Cc2ccccc2)NC(=O)[C@H](Cc2ccc(O)cc2)NC(=O)CNC(=O)[C@H](CC(=O)O)NC(=O)[C@@H](NC(=O)[C@H](Cc2c[nH]cn2)NC(=O)[C@@H](NC(=O)[C@H](CC(N)=O)NC(=O)[C@H]2CCCN2C(=O)[C@H](CCCCN)NC(=O)[C@H](CO)NC(=O)[C@H](CCC(N)=O)NC(=O)[C@H](Cc2ccccc2)NC(C)=O)C(C)C)C(C)C)C(N)=O)C1=O (stereo partly drawn) [JBT2317]
coagulation parameters [1]: restored coagulation parameters in Hem A blood
24 h Human Plasma Stability | Mean Remaining [%] (FIGURE 78J): 23.77%
24 h Mouse Plasma Stability | Mean Remaining [%] (FIGURE 78J): 15.95%

CCN1C(=O)CC(SC[C@H](NC(=O)[C@H](CC(C)C)NC(=O)[C@H](CCCCN)NC(=O)[C@H](C)NC(=O)C(C)(C)NC(=O)[C@H](CC(C)C)NC(=O)[C@H](CCCNC(=N)N)NC(=O)[C@H](CCC(=O)O)NC(=O)[C@H](Cc2ccccc2)NC(=O)[C@H](Cc2ccc(O)cc2)NC(=O)CNC(=O)[C@H](CC(=O)O)NC(=O)[C@@H](NC(=O)[C@H](Cc2c[nH]cn2)NC(=O)[C@@H](NC(=O)[C@H](CC(N)=O)NC(=O)[C@H]2CCCN2C(=O)[C@H](CCCCN)NC(=O)[C@H](CO)NC(=O)[C@H](CCC(N)=O)NC(=O)[C@H](Cc2ccccc2)NC(C)=O)C(C)C)C2CCCC2)C(N)=O)C1=O (stereo partly drawn) [JBT00002383, Ac-FQSKpNVH-Cpg-DGYFERL-Aib-AKLC(NEM)-NH2]
24 h Human Plasma Stability | Mean Remaining [%] (FIGURE 78M): 31.00%

CCN1C(=O)CC(SC[C@H](NC(=O)[C@H](CC(C)C)NC(=O)[C@H](CCCCN)NC(=O)[C@H](C)NC(=O)C(C)(C)NC(=O)[C@H](CC(C)C)NC(=O)[C@H](CCCNC(=N)N)NC(=O)[C@H](CCC(=O)O)NC(=O)[C@H](Cc2ccccc2)NC(=O)[C@H](Cc2ccc(O)cc2)NC(=O)CNC(=O)[C@H](CC(=O)O)NC(=O)C(C)(C)NC(=O)[C@H](Cc2c[nH]cn2)NC(=O)[C@@H](NC(=O)[C@H](CC(N)=O)NC(=O)[C@H]2CCCN2C(=O)[C@H](CCCCN)NC(=O)[C@H](CO)NC(=O)[C@H](CCC(N)=O)NC(=O)[C@H](Cc2ccccc2)NC(C)=O)C(C)C)C(N)=O)C1=O (stereo partly drawn) [JBT00002385, Ac-FQSKpNVH-Aib-DGYFERL-Aib-AKLC(NEM)-NH2]
24 h Human Plasma Stability | Mean Remaining [%] (FIGURE 78M): 51.50%

CCCCCC(=O)N[C@@H](Cc1ccccc1)C(=O)N[C@@H](CCC(N)=O)C(=O)N[C@@H](CO)C(=O)N[C@@H](CCCCN)C(=O)N1CCC[C@@H]1C(=O)N[C@@H](CSCNC(C)=O)C(=O)N[C@H](C(=O)N[C@@H](Cc1c[nH]cn1)C(=O)N[C@H](C(=O)N[C@@H](CC(=O)O)C(=O)N[C@H](C)C(=O)N[C@@H](Cc1ccc(O)cc1)C(=O)N[C@@H](Cc1ccccc1)C(=O)N[C@@H](CCC(=O)O)C(=O)N[C@@H](CCCNC(=N)N)C(=O)N[C@@H](CC(C)C)C(=O)NC(C)(C)C(=O)N[C@@H](C)C(=O)N[C@@H](CCCCN)C(=O)N[C@@H](CC(C)C)C(N)=O)C(C)(C)C)C(C)C [JBT2528, Hex-FQSKp-C(Acm)-VH-Tle-DaYFERL-Aib-AKL-NH2] (Hexanoyl-FQSK[dP]C(Acm)VH[Tle]D[dA]YFERL[Aib]AKL-NH2)
EC50 [1]: 11 nM

CCCCCCCCCCCCCCCC(=O)NCCCOCCOCCOCCCNC(=O)CCC(=O)NCCCC[C@H](NC(=O)[C@H](CC(C)C)NC(=O)[C@H](CCCCN)NC(=O)[C@H](C)NC(=O)C(C)(C)NC(=O)[C@H](CC(C)C)NC(=O)[C@H](CCCNC(=N)N)NC(=O)[C@H](CCC(=O)O)NC(=O)[C@H](Cc1ccccc1)NC(=O)[C@H](Cc1ccc(O)cc1)NC(=O)[C@@H](C)NC(=O)[C@H](CC(=O)O)NC(=O)[C@@H](NC(=O)[C@H](Cc1c[nH]cn1)NC(=O)[C@@H](NC(=O)[C@H](CSCNC(C)=O)NC(=O)[C@H]1CCCN1C(=O)[C@H](CCCCN)NC(=O)[C@H](CO)NC(=O)[C@H](CCC(N)=O)NC(=O)[C@H](Cc1ccccc1)NC(=O)CCCCC)C(C)C)C(C)(C)C)C(N)=O [JBT00002532, Hex-FQSKp-Cys(Acm)-VH-Tle-DaYFERL-Aib-AKLK(Ttds- Palm)--NH2] (Hexanoyl-FQSK[dP]C(Acm)VH[Tle]D[dA]YFERL[Aib]AKLK([Suc-TTDA(Palmitoyl)])-NH2)
24 h Human Plasma Stability | Mean Remaining [%] (FIGURE 78Z): 107.70%
24 h Mouse Plasma Stability | Mean Remaining [%] (FIGURE 78Z): 67.50%
IC50 (TFPI): 36.7 nM

CCCCCC(=O)N[C@@H](Cc1ccccc1)C(=O)N[C@@H](CCC(N)=O)C(=O)N[C@@H](CO)C(=O)N[C@@H](CCCCN)C(=O)N1CCC[C@@H]1C(=O)N[C@@H](CSCNC(C)=O)C(=O)N[C@H](C(=O)N[C@@H](Cc1c[nH]cn1)C(=O)N[C@H](C(=O)N[C@@H](CC(=O)O)C(=O)N[C@H](C)C(=O)N[C@@H](Cc1ccc(O)cc1)C(=O)N[C@@H](Cc1ccccc1)C(=O)N[C@@H](CCC(=O)O)C(=O)N[C@@H](CCCNC(=N)N)C(=O)N[C@@H](CC(C)C)C(=O)NC(C)(C)C(=O)N[C@@H](C)C(=O)N[C@@H](CCCCN)C(=O)N[C@@H](CC(C)C)C(=O)N[C@@H](CSC1CC(=O)N(CC)C1=O)C(N)=O)C(C)(C)C)C(C)C (stereo partly drawn) [JBT00002537, Hex-FQSKp-Cys(Acm)-VH-Tle-DaYFERL-Aib-AKLC(NEM)- NH2] (Hexanoyl-FQSK[dP]C(Acm)VH[Tle]D[dA]YFERL[Aib]AKLC(Succinimide(1-Et,3-yl))-NH2)
24 h Human Plasma Stability | Mean Remaining [%] (FIGURE 78Z): 106.65%
IC50 (TFPI): 7.13 nM

(Hex-FQSKp-Cys(Acm)-VH-Tle-DaYFERL-Aib-AKLC- NH2)2-M2TriO [JBT00002533]
24 h Human Plasma Stability | Mean Remaining [%] (FIGURE 78Z): 185.13%
24 h Mouse Plasma Stability | Mean Remaining [%] (FIGURE 78Z): 52.65%

Ac-FQSKpNVHVDGYFERL-Aib-AKLC(ME-50MA)-NH2 [JBT00002325]
24 h Human Plasma Stability | Mean Remaining [%] (FIGURE 78J): 67.60%
24 h Mouse Plasma Stability | Mean Remaining [%] (FIGURE 78J): 44.70%

Ac-FQSKpNVHVDGYFERL-Aib-AKLC(ME-120MA)-NH2 [JBT00002326]
24 h Human Plasma Stability | Mean Remaining [%] (FIGURE 78J): 58.70%
24 h Mouse Plasma Stability | Mean Remaining [%] (FIGURE 78J): 57.20%

Hex-FQSKp-Cys(Acm)-VH-Tle-DaYFERL-Aib-AKLC(ME- 400MA)-NH2 [JBT00002534]
24 h Human Plasma Stability | Mean Remaining [%] (FIGURE 78Z): 59.83%
24 h Mouse Plasma Stability | Mean Remaining [%] (FIGURE 78Z): 69.87%
